Assay results taken from patent publication EP2966448B1, “METHOD FOR THE PREDICTION OR PROGNOSIS OF THE RESPONSE OF A HUMAN SUBJECT SUFFERING FROM CANCER TO TREATMENT WITH AN ANTAGONIST OF THE NK1 RECEPTOR” (priority 2013, dated 2014).
Read-outs that look alike come from different tables or passages of the source.

What was measured:
Gastric carcinoma = assay: Inhibition of primary tumor cell cultures (48 hours) vs NK1 receptor immunostaining (Example 1); type: cell-based; settings: Homo sapiens, 1 micromolar, read-out: Percentage of inhibition of cell cultures
Procedure: (§1) Cell cultures. To obtain tumor cells from human primary tumors we used the method described in De Bari et al. (De Bari et al. 2001). Briefly, small pieces of the tumors were digested into a hyaluronidase solution (Sigma-Aldrich, USA) at a concentration of 1 mg/ml during 15 minutes at 37°C, and then they were treated with 6 mg/ml of collagenase type IV (Invitrogen) during 2 hours at 37°C. Consecutively, cells were washed, and resuspended in the DMEM culture medium with high concentration of glucose (Dulbecco's Modified Eagle's Medium, Invitrogen) supplemented with 1% of antibiotics-antimycotics (Invitrogen) and with 1% of sodium pyruvate (Invitrogen), and the cells were seeded in culture slides at a concentration of 10.000 cells per square centimeter. When cells reached confluence, the adherent cells were separated using sterile trypsin at 0,5% (Invitrogen) and they were used among passages 3 and 9. For the assays shown next, tumor cells were seeded on slides at a concentration of 25.000 cells per well. A total of 6 wells containing the tumor cells were used as survival control. […] All the cultures were kept during 48 hours and later on recollected for their analysis.
(§2) Immunohistochemistry techniques. The presence of NK1 receptors was also analyzed using immunohistochemistry techniques. Briefly, a sample of each of the cultures of the cell lines used in the present invention, was centrifuged (5 minutes at 1.500 rpm) and the pellet obtained was dehydrated using increasing concentrations of ethanol and, finally, xylol. Then, said dehydrated samples were embedded in paraffin, creating a block of cells. Such paraffin blocks were cut with a microtome at 5 microns thickness, and were placed on microscope slides adequate to perform immunohistochemistry techniques. Consecutively, they were de-paraffinized by immersing them in xylol, to be finally hydrated using a solution containing decreasing concentrations of ethanol, and finally submerged them into water. […] After this, the samples were left to cool down at room temperature for 10 minutes. The endogenous peroxidase activity was blocked with 3% peroxide of hydrogen for 30 minutes at room temperature. After washing the samples with 0.05 M of Tris buffer, they were incubated with 10% non-immune pork serum at for 30 minutes at room temperature. To analyze the expression of NK1 receptors, the cellular samples were incubated in the presence of anti-NK1 antibodies (S8305, Sigma-Aldrich) diluted 1:1000, overnight at 4°C. Afterwards, the samples were washed in Tris buffer 0.05 M at room temperature. The next step was the addition of Envision System-HRP (Dako) reagents for 30 minutes at room temperature. Then, the samples were washed again in Tris buffer 0.05 M and the immunoreactivity was visualized through light microscopy with a chromogenic solution containing 3,3'-Diaminobenzidine (DAB+; Dako, USA). To differentiate the cell nuclei, they were slightly stained with hematoxylin. As negative control, it was used samples not incubated with the primary antibody anti-NK1, which was replaced by non-immune serum. All the samples were evaluated.
(§3) To value the immunostaining in each of the cases six cuts were performed to be analyzed by the immunohistochemistry technique. In each of the six cuts, it was counted cells in 20 fields (magnification 400x) using an Olympus microscope (model CX31). In each field it was counted the total number of cells and the number of cells presenting immunostaining, calculating afterwards the percentage of cells which presented immunostaining.

Colon carcinoma = assay: as above; type: cell-based; settings: Homo sapiens, 1 micromolar, read-out: Percentage of inhibition of cell cultures
Procedure: as §1, §2, §3

Pancreatic carcinoma = assay: as above; type: cell-based; settings: Homo sapiens, 1 micromolar, read-out: Percentage of inhibition of cell cultures
Procedure: as §1, §2, §3

[1] = test system: Lung carcinoma (non small cell type); assay: as above; type: cell-based; settings: Homo sapiens, 1 micromolar, read-out: Percentage of inhibition of cell cultures
Procedure: as §1, §2, §3

[2] = test system: Lung carcinoma (small cell type); assay: as above; type: cell-based; settings: Homo sapiens, 1 micromolar, read-out: Percentage of inhibition of cell cultures
Procedure: as §1, §2, §3

Fibrosarcoma = assay: as above; type: cell-based; settings: Homo sapiens, 1 micromolar, read-out: Percentage of inhibition of cell cultures
Procedure: as §1, §2, §3

[3] = test system: Malignant Fibrous Histiocytoma; assay: as above; type: cell-based; settings: Homo sapiens, 1 micromolar, read-out: Percentage of inhibition of cell cultures
Procedure: as §1, §2, §3

Neuroblastoma = assay: as above; type: cell-based; settings: Homo sapiens, 1 micromolar, read-out: Percentage of inhibition of cell cultures
Procedure: as §1, §2, §3

Burkitt Lymphoma [4] = assay: as above; type: cell-based; settings: Homo sapiens, 1 micromolar, read-out: Percentage of inhibition of cell cultures
Procedure: as §1, §2, §3

[5] = test system: Gastric carcinoma (Adenocarcinoma); assay: Inhibition of primary tumor cell cultures vs Kras mutation (Example 2); type: cell-based, human; settings: Homo sapiens, Cases with Kras mutated; 100 micromolar; read-out: Percentage of inhibition of cell cultures
Procedure: (§4) Cell cultures. […] Briefly, small pieces of the tumors were digested into a hyaluronidase solution (Sigma-Aldrich, USA) at a concentration of 1 mg/ml during 15 minutes at 37°C, and then they were treated with 6 mg/ml of collagenase type IV (Invitrogen) during 2 hours at 37°C. Consecutively, cells were washed, and resuspended in the DMEM culture medium with high concentration of glucose (Dulbecco's Modified Eagle's Medium, Invitrogen) supplemented with 1% of antibiotics-antimycotics (Invitrogen) and with 1% of sodium pyruvate (Invitrogen), and the cells were seeded in culture slides at a concentration of 10.000 cells per square centimeter. When cells reached confluence, the adherent cells were separated using sterile trypsin at 0,5% (Invitrogen) and they were used among passages 3 and 9. For the assays shown next, tumor cells were seeded on slides at a concentration of 25.000 cells per well. A total of 6 wells containing the tumor cells were used as survival control. […] All the cultures were kept during 48 hours and later on recollected for their analysis.
(§5) In each case the presence or not of mutations in K-ras gene was determined.
(§6) To determine the existence of mutations in the K-ras gene DNA from cancer tumor cells was extracted from samples obtained from the different cancer tumor cells, using DNA extraction kits from Takara (Madison, WI, US) or Ambion (Huntingdon, Cambridgeshire, United Kingdom), following the manufacturer's instructions, and as it has been previously published (Di Fiore F, et al. 2007). Consecutively it was analyzed by sequencing the exon 2 of the KRAS gene, , by means of PCR amplification from previously extracted cancer tumor DNA, using the following sense primer (SEQ ID NO. 15): 5'-[sequence]-3' and anti-sense primer (SEQ ID NO. 16): 5'-[sequence]-3'. After the purification using the Qiagen extraction kit, the PCR products were sequenced using the Big Dye Terminator Kit V3.1 (Applied Biosystems, Foster City, CA, U.S.) and an ABI Prism 377 or 3100 DNA sequencer (Applied Biosystems). The presence of a heterozygous mutation in the KRAS gene in cancer tumor cells of the cultures was defined as the appearance of a mutant peak of a height of at least a third of the wild type. All the sequence analysis were executed at least twice in two independent PCR.
(§7) The antibody against NK1 receptor (Table 16) was used at 1/50 concentration. The percentages of inhibition are expressed in percentage of variation in relation to control ± standard deviation.

[6] = test system: Pancreatic carcinoma (Adenocarcinoma); assay: as above; type: cell-based, human; settings: Homo sapiens, Cases with Kras mutated; 100 micromolar; read-out: Percentage of inhibition of cell cultures
Procedure: as §4, §5, §6, §7

[7] = test system: Lung carcinoma (non small cell lung carcinoma); assay: as above; type: cell-based, human; settings: Homo sapiens, Cases with Kras mutated; 100 micromolar; read-out: Percentage of inhibition of cell cultures
Procedure: (§8) To obtain tumor cells from human primary tumors we used the method described in De Bari et al. (De Bari et al. 2001). Briefly, small pieces of the tumors were digested into a hyaluronidase solution (Sigma-Aldrich, USA) at a concentration of 1 mg/ml during 15 minutes at 37°C, and then they were treated with 6 mg/ml of collagenase type IV (Invitrogen) during 2 hours at 37°C. Consecutively, cells were washed, and resuspended in the DMEM culture medium with high concentration of glucose (Dulbecco's Modified Eagle's Medium, Invitrogen) supplemented with 1% of antibiotics-antimycotics (Invitrogen) and with 1% of sodium pyruvate (Invitrogen), and the cells were seeded in culture slides at a concentration of 10.000 cells per square centimeter. When cells reached confluence, the adherent cells were separated using sterile trypsin at 0,5% (Invitrogen) and they were used among passages 3 and 9. For the assays shown next, tumor cells were seeded on slides at a concentration of 25.000 cells per well. A total of 6 wells containing the tumor cells were used as survival control. […] All the cultures were kept during 48 hours and later on recollected for their analysis.
as §5, §6, §7

[8] = test system: Thyroid carcinoma (follicular carcinoma); assay: as above; type: cell-based, human; settings: Homo sapiens, Cases with Kras mutated; 100 micromolar; read-out: Percentage of inhibition of cell cultures
Procedure: as §8, §5, §6, §7

[9] = test system: Urinary bladder carcinoma (transitional cell carcinoma); assay: as above; type: cell-based, human; settings: Homo sapiens, Cases with Kras mutated; 100 micromolar; read-out: Percentage of inhibition of cell cultures
Procedure: as §8, §5, §6, §7

[10] = test system: Non Hodgkin Lymphoma T (diffuse T cell lymphoma); assay: as above; type: cell-based, human; settings: Homo sapiens, T-cell, Cases with Kras mutated; 100 micromolar; read-out: Percentage of inhibition of cell cultures
Procedure: as §1, §5, §6
The percentages of inhibition are expressed in percentage of variation in relation to control ± standard deviation.

Burkitt Lymphoma [11] = assay: as above; type: cell-based, human; settings: Homo sapiens, Cases with Kras mutated; 100 micromolar; read-out: Percentage of inhibition of cell cultures
Procedure: as §1, §5, §6, §7

[12] = test system: human primary tumor cells; assay: Inhibition of primary tumor cell cultures vs absence or presence of ERK  protein (Example 3; tumor type per table line); type: cell-based; settings: Non Hodgkin Lymphoma T (diffuse T cell lymphoma), 100 micromolar
Procedure: as §4
Consecutively, the cells were placed in cultures in the presence of several antagonists of the NK1 receptor.
In each case it was determined the presence or absence of the downstream effector in the MAP Kinases ERK pathway.
To determine the presence of the ERK protein, it was performed a Western Blot technique, using as primary antibody: Phospho-p44/42 MAPK (Erk1/2) (Thr202/Tyr204) (D13.14.4E) XP® Rabbit mAb (4370, Cell Signalling). To determine the presence of the MEK protein, it was performed the Western Blot technique, using as primary antibody Phospho-MEK1/2 (Ser217/221) (9121, Cell Signalling).
The antibody against NK1 receptor (Table 21) was used at 1/50 concentration. The percentages of inhibition are expressed in percentages of variation in relation to control ± standard deviation.

[13] = test system: human primary tumor cells; assay: Inhibition of primary tumor cell cultures vs amplification of the gene encoding the NK1 receptor (Example 6; tumor type per table line); type: cell-based; settings: Non Hodgkin Lymphoma T (diffuse T cell lymphoma); Cases with amplification of the gene that encodes for the NK1 receptor; 100 micromolar
Procedure: as §4
The presence or absence of the amplification of the gene encoding for the NK1 receptor was determined, and then the cells were cultured in the presence of several antagonists of the NK1 receptor.
For each case, the presence or absence of amplification of the gene encoding for the NK1 receptor was determined.
In order to determine the presence of the amplification (increase in the number of copies) of the gene encoding the NK1 receptor (TAC1R), it was used the comparative genomic hybridization technique (CGH Array). Firstly genomic DNA was extracted from each case. Later, it was performed the marking and hybridization of the DNA of each sample together with DNA of a commercial reference without genomic alterations (from masculine or feminine sex, depending on the gender of the patient from whom the samples were obtained). The Array is Sureprint G3 Human CGH Microarray from the company Agilent was used, with an average separation between probes of 5.3Kb and 4.6Kb for the genes RefSeq. The reading of the microarray was done with the DNA Microarray Scanner G2565CA from Agilent, at a resolution of 3 µm. The analysis of the results was performed with the software Cytogenomics v 2.0.6.0 from Agilent with ADM-2: 6.0; Centralization: ON (Threshold: 6.0, Bin size: 10); Fuzzy zero: ON; Aberration filters: ON (minProbes=5 and minAvgAbsLopRatio= 0,5); Feature Level Filters : ON. The genomic coordinates are coincident with the NCBI36genome (hg18). Cases were distributed in two groups: Group I for those cases without the amplification of the gene encoding the NK1 receptor (locus 2p13.1-p12), and Group II for those cases with amplification of the gene encoding the NK1receptor (locus 2p13.1-p12).
The antibody against NK1 receptor (Table 36) was used at 1/50 concentration. The percentages of inhibition are expressed in percentages of variation in relation to control ± standard deviation.

Endometrium carcinoma = assay: cells; settings: Homo sapiens, 1 micromolar
Procedure: as §1, §2, §3

[14] = NK1 receptor immunostaining Group 1 (less than 20% of the cells)
[15] = NK1 receptor immunostaining Group 2 (20-80% of the cells)
[16] = NK1 receptor immunostaining Group 3 (more than 80% of the cells)
[17] = NK1 receptor immunostaining Intensity grade 1
[18] = NK1 receptor immunostaining Intensity grade 2
[19] = NK1 receptor immunostaining Intensity grade 3

`C[C@@H](O[C@H]1OCCN(Cc2n[nH]c(=O)[nH]2)[C@H]1c1ccc(F)cc1)c1cc(C(F)(F)F)cc(C(F)(F)F)c1` [Aprepitant] was tested, and the inhibition at 1 µM (Gastric carcinoma; [14]) was 10 ± 3%, the inhibition at 1 µM (Gastric carcinoma; [15]) was 45 ± 3% and the inhibition at 1 µM (Gastric carcinoma; [16]) was 92 ± 3%. It also gave an inhibition at 1 µM (Gastric carcinoma; [17]) of 25 ± 6%, an inhibition at 1 µM (Gastric carcinoma; [18]) of 57 ± 5% and an inhibition at 1 µM (Gastric carcinoma; [19]) of 96 ± 4%. The inhibition at 1 µM (Colon carcinoma; [14]) was 11 ± 4%, the inhibition at 1 µM (Colon carcinoma; [15]) was 44 ± 2% and the inhibition at 1 µM (Colon carcinoma; [16]) was 95 ± 4%. For the same molecule, the inhibition at 1 µM (Colon carcinoma; [17]) was 26 ± 6%, the inhibition at 1 µM (Colon carcinoma; [18]) was 56 ± 6% and the inhibition at 1 µM (Colon carcinoma; [19]) was 95 ± 5%. The inhibition at 1 µM (Pancreatic carcinoma; [14]) was 12 ± 3%, the inhibition at 1 µM (Pancreatic carcinoma; [15]) was 47 ± 1% and the inhibition at 1 µM (Pancreatic carcinoma; [16]) was 94 ± 6%. For the same molecule, the inhibition at 1 µM (Pancreatic carcinoma; [17]) was 27 ± 7%, the inhibition at 1 µM (Pancreatic carcinoma; [18]) was 56 ± 5% and the inhibition at 1 µM (Pancreatic carcinoma; [19]) was 94 ± 3%. For the same molecule, the inhibition at 1 µM [1, 14] was 9 ± 3%, the inhibition at 1 µM [1, 15] was 41 ± 3% and the inhibition at 1 µM [1, 16] was 94 ± 7%. The inhibition at 1 µM [1, 17] was 28 ± 5%, the inhibition at 1 µM [1, 18] was 57 ± 5% and the inhibition at 1 µM [1, 19] was 95 ± 3%. It also gave an inhibition at 1 µM [2, 14] of 10 ± 2%, an inhibition at 1 µM [2, 15] of 42 ± 3% and an inhibition at 1 µM [2, 16] of 97 ± 6%. For the same molecule, the inhibition at 1 µM [2, 17] was 29 ± 6%, the inhibition at 1 µM [2, 18] was 56 ± 6% and the inhibition at 1 µM [2, 19] was 96 ± 4%. For the same molecule, the inhibition at 1 µM (Fibrosarcoma; [14]) was 10 ± 3%, the inhibition at 1 µM (Fibrosarcoma; [15]) was 48 ± 3% and the inhibition at 1 µM (Fibrosarcoma; [16]) was 96 ± 5%. For the same molecule, the inhibition at 1 µM (Fibrosarcoma; [17]) was 27 ± 6%, the inhibition at 1 µM (Fibrosarcoma; [18]) was 54 ± 5% and the inhibition at 1 µM (Fibrosarcoma; [19]) was 95 ± 5%. The inhibition at 1 µM [3, 14] was 11 ± 2%, the inhibition at 1 µM [3, 15] was 47 ± 2% and the inhibition at 1 µM [3, 16] was 95 ± 6%. It also gave an inhibition at 1 µM [3, 17] of 28 ± 7%, an inhibition at 1 µM [3, 18] of 56 ± 5% and an inhibition at 1 µM [3, 19] of 94 ± 3%. For the same molecule, the inhibition at 1 µM (Neuroblastoma; [14]) was 10 ± 3%, the inhibition at 1 µM (Neuroblastoma; [15]) was 44 ± 5% and the inhibition at 1 µM (Neuroblastoma; [16]) was 97 ± 5%. For the same molecule, the inhibition at 1 µM (Neuroblastoma; [17]) was 27 ± 6%, the inhibition at 1 µM (Neuroblastoma; [18]) was 57 ± 6% and the inhibition at 1 µM (Neuroblastoma; [19]) was 97 ± 5%. The inhibition at 1 µM (Burkitt Lymphoma [4]; [14]) was 10 ± 2%, the inhibition at 1 µM (Burkitt Lymphoma [4]; [15]) was 45 ± 6% and the inhibition at 1 µM (Burkitt Lymphoma [4]; [16]) was 96 ± 4%. It also gave an inhibition at 1 µM (Burkitt Lymphoma [4]; [17]) of 27 ± 5%, an inhibition at 1 µM (Burkitt Lymphoma [4]; [18]) of 55 ± 3% and an inhibition at 1 µM (Burkitt Lymphoma [4]; [19]) of 92 ± 5%. It also gave an inhibition at 100 µM [5] of 24 ± 3%, an inhibition at 100 µM [6] of 22 ± 4% and an inhibition at 100 µM [7] of 21 ± 2%. For the same molecule, the inhibition at 100 µM [8] was 26 ± 3%, the inhibition at 100 µM [9] was 26 ± 5% and the inhibition at 100 µM [10] was 25 ± 4%. For the same molecule, the inhibition at 100 µM (Burkitt Lymphoma [11]) was 24 ± 3%, the “Percentage of inhibition of cell cultures” value ([12]; cases with presence of ERK) was 94±4 percentage and the “Percentage of inhibition of cell cultures” value ([12]; cases without presence of ERK) was 23±3 percentage. The “Percentage of inhibition of cell cultures” value [13] was 94±7 percentage, the inhibition at 1 µM (Endometrium carcinoma; read-out: Percentage of inhibition of cell cultures, NK1 receptor immunostaining Group 1 (less than 20% of the cells)) was 12 ± 2% and the inhibition at 1 µM (Endometrium carcinoma; read-out: Percentage of inhibition of cell cultures, NK1 receptor immunostaining Group 2 (20-80% of the cells)) was 49 ± 2%. The inhibition at 1 µM (Endometrium carcinoma; read-out: Percentage of inhibition of cell cultures, NK1 receptor immunostaining Group 3 (more than 80% of the cells)) was 95 ± 4%, the inhibition at 1 µM (Endometrium carcinoma; read-out: Percentage of inhibition of cell cultures, NK1 receptor immunostaining Intensity grade 1) was 25 ± 7% and the inhibition at 1 µM (Endometrium carcinoma; read-out: Percentage of inhibition of cell cultures, NK1 receptor immunostaining Intensity grade 2) was 59 ± 5%.
